Measurements as given in PubChem BioAssay AID200 (DTP/NCI, 2004).
Several values for one entry are separate records, joined by “and”; a condition that tells them apart may be missing. Identical values can stand only once. Toxic doses and inconclusive results are not listed.

Tested on: B6C3F1 mice, B16 melanoma ip, median survival T/C
Assay: NCI In Vivo Anticancer Drug Screen. Data for tumor model B16 Melanoma (intraperitoneal) in B6C3F1 mice
Conditions: endpoint: median survival time, higher = longer survival
Procedure: The antitumor activity of compounds was measured in mice bearing transplantable tumors. Survival or tumor size were measured and the results are expressed as the measurement made in the treated group (T) divided by the measurement made in the vehicle treated control group (C). The tumor model used in this assay is B16 Melanoma (intraperitoneal) in B6C3F1 mice

[1] = dose: 12.5 mg/kg/injection, schedule: Q01DX009 (ip), vehicle: saline with Tween-80
[2] = dose: 25.0 mg/kg/injection, schedule: Q01DX009 (ip), vehicle: saline with Tween-80
[3] = dose: 50.0 mg/kg/injection, schedule: Q01DX009 (ip), vehicle: saline with Tween-80
[4] = dose: 100.0 mg/kg/injection, schedule: Q01DX009 (ip), vehicle: saline with Tween-80
[5] = dose: 200.0 mg/kg/injection, schedule: Q01DX009 (ip), vehicle: saline with Tween-80

**Q.** What does the source list for `O=C1c2c(O)ccc(O)c2C(=O)c2c(NCCNCCO)ccc(NCCNCCO)c21`?
**A.** T/C (dose: 0.12 mg/kg/injection, schedule: Q01DX009 (ip), vehicle: water): 111 % of control; T/C (dose: 0.12 mg/kg/injection, schedule: Q03HX024 (ip), vehicle: acid diluted with saline): 287 % of control; T/C (dose: 0.13 mg/kg/injection, schedule: Q01DX009 (ip), vehicle: water): 184 % of control; T/C (dose: 0.25 mg/kg/injection, schedule: Q01DX005 (ip), vehicle: saline): 183 % of control; T/C (dose: 0.25 mg/kg/injection, schedule: Q01DX005 (iv), vehicle: acid diluted with saline): 102 % of control; T/C (dose: 0.25 mg/kg/injection, schedule: Q01DX005 (iv), vehicle: saline): 88 % of control; T/C (dose: 0.25 mg/kg/injection, schedule: Q01DX009 (ip), vehicle: acid diluted with saline): 172 % of control; T/C (dose: 0.25 mg/kg/injection, schedule: Q01DX009 (ip), vehicle: water): 212 % of control [middle of 4 runs]; T/C (dose: 0.25 mg/kg/injection, schedule: Q01DX009 (sc), vehicle: acid diluted with saline): 101 % of control; T/C (dose: 0.25 mg/kg/injection, schedule: Q03HX008 (ip), vehicle: acid diluted with saline): 206 % of control; T/C (dose: 0.25 mg/kg/injection, schedule: Q03HX024 (ip), vehicle: acid diluted with saline): 292 % of control; T/C (dose: 0.31 mg/kg/injection, schedule: Q01DX009 (ip), vehicle: water): 168 % of control; T/C (dose: 0.5 mg/kg/injection, schedule: Q01DX005 (ip), vehicle: saline): 206 % of control; T/C (dose: 0.5 mg/kg/injection, schedule: Q01DX005 (iv), vehicle: acid diluted with saline): 99 % of control; T/C (dose: 0.5 mg/kg/injection, schedule: Q01DX005 (iv), vehicle: saline): 93 % of control; T/C (dose: 0.5 mg/kg/injection, schedule: Q01DX009 (ip), vehicle: acid diluted with saline): 185 % of control; T/C (dose: 0.5 mg/kg/injection, schedule: Q01DX009 (ip), vehicle: other): 222 % of control; T/C (dose: 0.5 mg/kg/injection, schedule: Q01DX009 (ip), vehicle: water): 216 % of control and 326 % of control and 337 % of control; T/C (dose: 0.5 mg/kg/injection, schedule: Q01DX009 (sc), vehicle: acid diluted with saline): 121 % of control; T/C (dose: 0.5 mg/kg/injection, schedule: Q03HX008 (ip), vehicle: acid diluted with saline): 219 % of control; T/C (dose: 0.62 mg/kg/injection, schedule: Q01DX009 (ip), vehicle: water): 198 % of control and 234 % of control; T/C (dose: 1.0 mg/kg/injection, schedule: Q01DX005 (ip), vehicle: saline): 275 % of control; T/C (dose: 1.0 mg/kg/injection, schedule: Q01DX005 (iv), vehicle: acid diluted with saline): 99 % of control; T/C (dose: 1.0 mg/kg/injection, schedule: Q01DX005 (iv), vehicle: saline): 105 % of control; T/C (dose: 1.0 mg/kg/injection, schedule: Q01DX009 (ip), vehicle: acid diluted with saline): 229 % of control; T/C (dose: 1.0 mg/kg/injection, schedule: Q01DX009 (ip), vehicle: other): 220 % of control; T/C (dose: 1.0 mg/kg/injection, schedule: Q01DX009 (ip), vehicle: water): 326 % of control [middle of 4 runs]; T/C (dose: 1.0 mg/kg/injection, schedule: Q01DX009 (oral), vehicle: acid diluted with saline): 103 % of control; T/C (dose: 1.0 mg/kg/injection, schedule: Q03HX008 (ip), vehicle: acid diluted with saline): 284 % of control; T/C (dose: 1.0 mg/kg/injection, schedule: Q04DX003 (ip), vehicle: acid diluted with saline): 200 % of control; T/C (dose: 1.25 mg/kg/injection, schedule: Q01DX009 (ip), vehicle: water): 238 % of control and 252 % of control; T/C (dose: 2.0 mg/kg/injection, schedule: Q01DX005 (ip), vehicle: saline): 275 % of control; T/C (dose: 2.0 mg/kg/injection, schedule: Q01DX005 (iv), vehicle: acid diluted with saline): 121 % of control; T/C (dose: 2.0 mg/kg/injection, schedule: Q01DX005 (iv), vehicle: saline): 100 % of control; T/C (dose: 2.0 mg/kg/injection, schedule: Q01DX009 (ip), vehicle: acid diluted with saline): 151 % of control; T/C (dose: 2.0 mg/kg/injection, schedule: Q01DX009 (ip), vehicle: other): 105 % of control; T/C (dose: 2.0 mg/kg/injection, schedule: Q01DX009 (ip), vehicle: water): 162 % of control and 187 % of control; T/C (dose: 2.0 mg/kg/injection, schedule: Q01DX009 (oral), vehicle: acid diluted with saline): 102 % of control; T/C (dose: 2.0 mg/kg/injection, schedule: Q03HX008 (ip), vehicle: acid diluted with saline): 292 % of control; T/C (dose: 2.0 mg/kg/injection, schedule: Q04DX003 (ip), vehicle: acid diluted with saline): 224 % of control; T/C (dose: 4.0 mg/kg/injection, schedule: Q01DX001 (ip), vehicle: acid diluted with saline): 200 % of control and 254 % of control; T/C (dose: 4.0 mg/kg/injection, schedule: Q01DX001 (iv), vehicle: acid diluted with saline): 108 % of control; T/C (dose: 4.0 mg/kg/injection, schedule: Q01DX009 (ip), vehicle: water): 262 % of control; T/C (dose: 4.0 mg/kg/injection, schedule: Q01DX009 (oral), vehicle: acid diluted with saline): 96 % of control; T/C (dose: 4.0 mg/kg/injection, schedule: Q04DX003 (ip), vehicle: acid diluted with saline): 278 % of control; T/C (dose: 8.0 mg/kg/injection, schedule: Q01DX001 (ip), vehicle: acid diluted with saline): 219 % of control and 260 % of control; T/C (dose: 8.0 mg/kg/injection, schedule: Q01DX001 (iv), vehicle: acid diluted with saline): 104 % of control; T/C (dose: 8.0 mg/kg/injection, schedule: Q04DX003 (ip), vehicle: acid diluted with saline): 92 % of control; T/C (dose: 9.0 mg/kg/injection, schedule: Q01DX001 (ip), vehicle: acid diluted with saline): 245 % of control and 98 % of control; T/C (dose: 16.0 mg/kg/injection, schedule: Q01DX001 (ip), vehicle: acid diluted with saline): 220 % of control and 292 % of control; T/C (dose: 18.0 mg/kg/injection, schedule: Q01DX001 (ip), vehicle: acid diluted with saline): 196 % of control; T/C (dose: 32.0 mg/kg/injection, schedule: Q01DX001 (ip), vehicle: acid diluted with saline): 234 % of control

**Q.** How did the T/C (dose: 100.0 mg/kg/injection, schedule: Q01DX009 (ip), vehicle: saline) turn out when `NC(CCCCNC=O)C(=O)O` (stereo not drawn) was run?
**A.** 110 % of control

**Q.** And the T/C (dose: 200.0 mg/kg/injection, schedule: Q01DX009 (ip), vehicle: saline)?
**A.** 121 % of control

**Q.** What about the T/C (dose: 400.0 mg/kg/injection, schedule: Q01DX009 (ip), vehicle: saline) of the same compound?
**A.** 116 % of control

**Q.** Which results are given for `O=Cc1ccccc1`?
**A.** T/C [1]: 101 % of control; T/C (dose: 25.0 mg/kg/injection, schedule: Q01DX009 (ip), vehicle: Klucel (hydroxypropylcellulose) (HPC)): 100 % of control; T/C [2]: 99 % of control; T/C (dose: 50.0 mg/kg/injection, schedule: Q01DX009 (ip), vehicle: Klucel (hydroxypropylcellulose) (HPC)): 105 % of control; T/C [3]: 98 % of control; T/C (dose: 50.0 mg/kg/injection, schedule: Q01DX009 (oral), vehicle: Klucel (hydroxypropylcellulose) (HPC)): 95 % of control; T/C [4]: 98 % of control; T/C (dose: 100.0 mg/kg/injection, schedule: Q01DX009 (oral), vehicle: Klucel (hydroxypropylcellulose) (HPC)): 88 % of control; T/C (dose: 200.0 mg/kg/injection, schedule: Q01DX009 (ip), vehicle: Klucel (hydroxypropylcellulose) (HPC)): 86 % of control; T/C [5]: 89 % of control; T/C (dose: 200.0 mg/kg/injection, schedule: Q01DX009 (oral), vehicle: Klucel (hydroxypropylcellulose) (HPC)): 98 % of control; T/C (dose: 400.0 mg/kg/injection, schedule: Q01DX009 (ip), vehicle: Klucel (hydroxypropylcellulose) (HPC)): 92 % of control; T/C (dose: 400.0 mg/kg/injection, schedule: Q01DX009 (oral), vehicle: Klucel (hydroxypropylcellulose) (HPC)): 105 % of control

**Q.** With `COc1cccc(C2NC(=O)c3c(n[nH]c3N)S2)c1O` (stereo not drawn) as the compound, how does the T/C [1] read?
**A.** 101 % of control

**Q.** What about the T/C [2] of the same compound?
**A.** 106 % of control

**Q.** What about the T/C [3] of the same compound?
**A.** 104 % of control

**Q.** What about the T/C [4] of the same compound?
**A.** 107 % of control

**Q.** And the T/C [5]?
**A.** 95 % of control

**Q.** Which T/C (dose: 0.05 mg/kg/injection, schedule: Q01DX009 (ip), vehicle: Klucel (hydroxypropylcellulose) (HPC)) does the source give for `CC(=O)CC(c1ccccc1)c1c(O)c2ccccc2oc1=O` (stereo not drawn) here?
**A.** 95 % of control

**Q.** And the T/C (dose: 0.05 mg/kg/injection, schedule: Q01DX009 (ip), vehicle: saline with Tween-80)?
**A.** 121 % of control and 106 % of control

**Q.** What about the T/C (dose: 0.1 mg/kg/injection, schedule: Q01DX009 (ip), vehicle: Klucel (hydroxypropylcellulose) (HPC)) of the same compound?
**A.** 104 % of control

**Q.** And the T/C (dose: 0.1 mg/kg/injection, schedule: Q01DX009 (ip), vehicle: saline with Tween-80)?
**A.** 91 % of control

**Q.** And the T/C (dose: 0.2 mg/kg/injection, schedule: Q01DX009 (ip), vehicle: Klucel (hydroxypropylcellulose) (HPC))?
**A.** 93 % of control

**Q.** And the T/C (dose: 0.2 mg/kg/injection, schedule: Q01DX009 (ip), vehicle: saline with Tween-80)?
**A.** 124 % of control and 87 % of control

**Q.** And the T/C (dose: 0.4 mg/kg/injection, schedule: Q01DX009 (ip), vehicle: Klucel (hydroxypropylcellulose) (HPC))?
**A.** 108 % of control

**Q.** What about the T/C (dose: 0.4 mg/kg/injection, schedule: Q01DX009 (ip), vehicle: saline with Tween-80) of the same compound?
**A.** 111 % of control

**Q.** And the T/C (dose: 0.8 mg/kg/injection, schedule: Q01DX009 (ip), vehicle: Klucel (hydroxypropylcellulose) (HPC))?
**A.** 98 % of control

**Q.** And the T/C (dose: 0.8 mg/kg/injection, schedule: Q01DX009 (ip), vehicle: saline with Tween-80)?
**A.** 103 % of control
